Here are results for 10 molecules from patent publication US10501435B2, “Substituted quinazoline compounds and uses thereof for modulating glucocerebrosidase activity” (Northwestern University, priority 2015, dated 2019).

Experiment [1] addresses T1, wild-type GCase (Homo sapiens (Human), UniProt P04062). As to the kind of experiment: Fluorescent thermal shift assay. Particulars: pH 5.0, 0.5 to 200 μM. In kind it is binding. The text has this:
Compounds shown to act as pharmacological chaperones for GCase (or other lysosomal enzymes) also stabilize the enzyme against thermal denaturation. A fluorescent thermal shift assay was developed to evaluate the binding affinity of ligands with protein^30. […] The maximum thermal shift of these compounds corresponded to their inhibitory activity at pH 5.0.
Fluorescence Thermal Shift Analysis^31. A robotic pipeline in the High Throughput Analysis Laboratory (HTAL) was used for protein ligand screening by fluorescence thermal shift (FTS) analysis. The pipeline used a Mosquito robot (TTP Labtech) for protein dispensing and an Echo 550 (Labcyte) to add compounds. Thermal scanning coupled with fluorescence detection was performed on a real-time PCR machine CFX384 (Bio-Rad Laboratories). The assay was run in 384-well PCR plates, using 10 μL citric acid/K2HPO4 buffer (50 mM citric acid, 150 mM K2HPO4, pH 5.0) per well. The assay concentration for protein was 1 μM and that for Sypro Orange (Invitrogen) was 5×. Protein was premixed with Sypro Orange and dispensed to a plate first, and compounds were added. Final concentrations of compounds ranged from 0.5 to 200 μM. Then the plate was sealed with an optical seal, shaken, and centrifuged. The thermal scan was from 10 to 95° C. with a temperature ramp rate of 1.5° C./min. The fluorescence was recorded every 10 sec. Data analysis and report generation were performed using the in-house software excelFTS.

The target of experiment [2] is acid α-glucosidase (GAA) (Homo sapiens (Human), UniProt P10253). As to the kind of experiment: Enzyme selectivity assay, acid α-glucosidase. To be noted: compound treatments up to 100 μM, pH 4.8. It counts as biochemical. From the text: (§1) 4-Methylumbelliferyl β-D-glucopyranoside (4MU-β-Glc), 4-methylumbelliferyl α-D-glucopyranoside, 4-methylumbelliferyl α-D-galactopyranoside, and buffer components were purchased from Sigma-Aldrich (St. Louis, Mo.). The recombinant wild-type GCase enzyme velaglucerase alfa (Vpriv®, Shire Human Genetic Therapies, Inc.), acid α-glucosidase enzyme alglucosidase alfa (Lumizyme®, Genzyme Corporation), α-galactosidase A enzyme agalsidase beta (Fabrazyme®, Genzyme Corporation) were used in activity assays. The GCase activity assay buffer was composed of 50 mM citric acid, 176 mM K2HPO4, and 0.01% Tween-20 at pH5.0, pH 5.9 and pH7.0. A solution of 1 M sodium hydroxide and 1 M glycine (pH 10) was used as the stop solution for all three enzyme activity assays.
(§2) Enzyme Selectivity Assays. The acid α-glucosidase and α-galactosidase A enzyme activity assay methods were similar to the GCase enzyme activity assay above with slight modifications. The buffer for the two enzyme assays consisted of 50 mM citric acid, 176 mM K2HPO4, and 0.01% Tween-20 at pH 4.8. The final enzyme concentrations for acid α-glucosidase and α-galactosidase A were 8 and 1 nM, respectively. The substrate concentrations for these related enzymes were at 0.16 and 0.4 mM, respectively.

Experiment [3] addresses α-galactosidase A (GLA) (Homo sapiens (Human), UniProt P06280). The experiment is described as follows: Enzyme selectivity assay, α-galactosidase A. To be noted: compound treatments up to 100 μM, pH 4.8. In kind it is biochemical.
Source text: as §1, §2

In experiment [4] the target is T1, wild-type GCase. The experiment is described as follows: GCase enzyme activity assay (4MU-β-Glc substrate, no taurocholate). To be noted: for change of inhibitory activity at pH 5.0 and pH 7.0 compared to pH 5.9: both pH conditions. In kind it is biochemical. The method, then: In previous studies, high concentrations of taurocholate (4-10 mM) were used to improve the signal in GCase enzyme activity assays^16,27,28. […] Here we describe our modifications of the substituents on the quinazoline ring.
as §1, with “The GCase activity assay buffer was composed of 50 mM citric acid, 176 mM K2HPO4, and 0.01% Tween-20 at pH5.0, pH 5.9 and pH7.0.” left out
GCase Enzyme Activity Assay. The compounds in DMSO solution (0.5 μL/well) were transferred to a black 96-well plate (the final titration started from 100 μM, a 12 or 24-point 2-fold dilution series). […] After 5 min of incubation at room temperature, the enzyme reaction was initiated by the addition of blue substrate (4MU-β-Glc) (33 μL/well). The final concentration of the blue substrate was 1.5 mM. The blue substrate reaction was terminated by the addition of 33 μL/well stop solution (1 M NaOH and 1 M glycine mixture, pH 10) after 30 min of incubation at 37° C. […] The selected compounds were further assayed under pH 5.0 and pH 7.0 to evaluate their selectivity under various pH conditions.

Experiment [5] addresses T2, N370S mutant GCase (Homo sapiens (Human), UniProt P04062, N370S). As to the kind of experiment: GCase protein levels by Western blot in patient N370S fibroblasts. Particulars: 3-day treatment, 0.2 μM and 2 μM. It counts as cell-based. The procedure:
(§3) N370S Cell Culture and Compound Treatment. The N370S fibroblast cell line was obtained from Coriell, GM00372, cultured in DMEM medium (Life Tech) including 1% v/v L-glutamine 200 mM (Life Tech), 1% v/v pen strep (Life Tech), 10% FBS (Life Tech) at 37° C. and 5% CO2 and treated with different compounds at 0.2 μM and 2 μM. After a 3-day treatment, cells were washed with inhibitor free media 3 times and fed with inhibitor free media for 1 day, followed by 1% Triton X-100 lysis buffer to lyse cells. Protein concentrations were measured with a Bradford kit (Thermo), and the GCase activity was determined at pH 5.5.
Western Blot. Proteins were denatured in 20% SDS sample buffer at 100° C. for 10 min; 10% Bis-Tris gel (Life Tech) was used for gels; Trans-Blot Turbo PVDF kit (Bio-Rad) was used for membrane transfer, and Chemidoc MP system (Bio-Rad) was used to analyze the blots.
In general terms: A western blot detects proteins with antibodies after separation by electrophoresis.

The target in experiment [6] is T2, N370S mutant GCase. The experiment is described as follows: GCase activity assay in patient N370S fibroblasts. To be noted: 3-day treatment, activity determined at pH 5.5. In kind it is cell-based. The procedure: as §3
Experiment [7] has as its target GCase (Homo sapiens (Human), UniProt P04062). As to the kind of experiment: Enzyme kinetic assay (Lineweaver-Burk, resorufin β-D-glucopyranoside). In kind it is biochemical. Particulars: substrate 30-150 μM, increasing inhibitor concentrations. The procedure:
We further tested compounds 4 and 11g by measuring GCase activity at various substrate concentrations (30-150 μM) and in the absence or presence of increasing concentrations of GCase inhibitors.
Enzyme Kinetic Assay. The substrate resorufin β-D-glucopyranoside was diluted to five concentrations, ranging from 30 to 150 μM. Seven concentrations of inhibitors (between 0.5- and 5-fold of IC50 value) and a DMSO control were added to the enzyme solution. The final enzyme concentration was 10 nM to give a linear reaction over 10 min. Enzyme kinetics were measured by the addition of 66 μL of substrate to a 96-well assay plate, followed by 33 μL of enzyme solution (with or without inhibitor) using a dispense module on a Biotek Synergy H1 multi-mode plate reader. The increase in product fluorescence was measured at 1 min intervals for 10 min in the plate reader. The rate of product formation was calculated by converting the fluorescence units to nanomoles of product per minute using a standard curve of the free fluorophore, resorufin.

Entries after “also recorded” stand apart in the source; their conditions may differ.

Sequence of α-galactosidase A (GLA) (P06280 32-429): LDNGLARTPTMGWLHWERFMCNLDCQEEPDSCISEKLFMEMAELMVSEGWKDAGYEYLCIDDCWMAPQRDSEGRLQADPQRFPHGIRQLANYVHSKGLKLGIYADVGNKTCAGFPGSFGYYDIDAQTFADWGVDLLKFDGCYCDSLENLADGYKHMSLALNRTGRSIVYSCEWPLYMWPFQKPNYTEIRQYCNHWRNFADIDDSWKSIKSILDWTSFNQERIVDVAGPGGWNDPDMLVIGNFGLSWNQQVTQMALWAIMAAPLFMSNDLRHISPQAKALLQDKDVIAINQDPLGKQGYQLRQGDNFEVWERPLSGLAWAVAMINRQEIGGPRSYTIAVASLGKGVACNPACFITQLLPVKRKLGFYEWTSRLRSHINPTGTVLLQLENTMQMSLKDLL
T2 sequence (P04062 40-536 N409S): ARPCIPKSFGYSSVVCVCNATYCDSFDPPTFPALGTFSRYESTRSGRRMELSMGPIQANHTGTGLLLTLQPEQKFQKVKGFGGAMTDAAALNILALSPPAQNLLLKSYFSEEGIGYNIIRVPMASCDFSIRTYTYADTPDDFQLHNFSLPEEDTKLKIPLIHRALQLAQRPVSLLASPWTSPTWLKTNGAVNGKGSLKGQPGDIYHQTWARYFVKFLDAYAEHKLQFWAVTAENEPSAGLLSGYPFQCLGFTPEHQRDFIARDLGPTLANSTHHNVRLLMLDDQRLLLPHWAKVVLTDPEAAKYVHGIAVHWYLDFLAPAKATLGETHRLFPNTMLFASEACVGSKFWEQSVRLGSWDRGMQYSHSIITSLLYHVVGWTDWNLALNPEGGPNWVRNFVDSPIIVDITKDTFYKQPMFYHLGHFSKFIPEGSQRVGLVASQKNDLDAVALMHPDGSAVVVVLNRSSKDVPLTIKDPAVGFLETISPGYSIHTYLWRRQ
T1 sequence (P04062 40-536): as the sequence (P04062 40-536 N409S) above, with S370N counted along it
Sequence of GCase (P04062 40-536): as the sequence (P04062 40-536 N409S) above, with S370N counted along it

As to `c1cncc(-c2nc(NC3CCc4ccccc4C3)c3ccccc3n2)c1` (single isomer, unassigned) [Compound 9a], the “stabilization of wild-type GCase / change of GCase melting point” value in experiment [1] is given as “stabilize wild-type GCase in a dose-dependent manner; also recorded: increased the GCase melting point in a dose-dependent manner”. Also, in experiment [2], the “acid α-glucosidase (GAA) activity” value was “not significantly changed”. Also, the “α-galactosidase A (GLA) activity” value in experiment [3] is “not significantly changed”.

In the case of `c1ccc(Nc2nc(-c3cccnc3)nc3ccccc23)cc1` [Compound 8a], the “stabilization of wild-type GCase / change of GCase melting point” value in experiment [1] is “did not change the melting points significantly”. The “inhibitory activity against GCase (in words)” value in experiment [4] is given as “lost activity”.

In the case of `c1cncc(-c2nc(N[C@@H]3CCc4ccccc4C3)c3ccccc3n2)c1` [Compound 9b], the “stabilization of wild-type GCase / change of GCase melting point” value in experiment [1] was “stabilize wild-type GCase in a dose-dependent manner; also recorded: increased the GCase melting point in a dose-dependent manner”. For the same molecule, the “decrease of inhibitory activity at pH 5.0 compared to pH 5.9” value in experiment [4] (pH 5.0 vs pH 5.9) came to 3 fold.

In the case of `c1cncc(-c2nc(NC3CCCc4ccccc43)c3ccccc3n2)c1` (centres unmarked) [Compound 9d], the “inhibitory activity against GCase (in words)” value in experiment [4] was “low micromolar range”.

For the molecule `c1cncc(-c2nc(NC3CCc4ccccc43)c3ccccc3n2)c1` (centres unmarked) [Compound 9e], the “inhibitory activity against GCase (in words)” value in experiment [4] was “low micromolar range”.

What is called IC50 is the concentration at which inhibition is half-maximal. Lower therefore signals inhibition by little substance. In turn, `c1cncc(-c2nc(NC3COc4ccccc4C3)c3ccccc3n2)c1` (centres unmarked) [Compound 9f] returned an IC50 in experiment [4] (Table 4, pH 5.9, mean ± SD, triplicate) of 35 ± 3 nM.

Take `c1ccc(-c2nc(NC3Cc4ccccc4C3)c3ccccc3n2)cc1` [Compound 11d, N-(2,3-dihydro-1H-inden-2-yl)-2-phenylquinazolin-4-amine]: the “stabilization of wild-type GCase / change of GCase melting point” value in experiment [1] is given as “stabilize wild-type GCase in a dose-dependent manner; also recorded: increased the GCase melting point in a dose-dependent manner”. In addition, in experiment [2], the “acid α-glucosidase (GAA) activity” value was “not significantly changed”. For the same molecule, the “α-galactosidase A (GLA) activity” value in experiment [3] was “not significantly changed”. In experiment [5], the “concentration of GCase (protein level, Western blot)” value (“concentration of GCase” for short) is given as “significantly increased”.

`c1csc(-c2nc(NC3Cc4ccccc4C3)c3ccccc3n2)c1` [Compound 11f, N-(2,3-dihydro-1H-inden-2-yl)-2-(thiophen-2-yl)quinazolin-4-amine]: the “stabilization of wild-type GCase / change of GCase melting point” value in experiment [1] is recorded as “stabilize wild-type GCase in a dose-dependent manner; also recorded: increased the GCase melting point in a dose-dependent manner”. In addition, in experiment [4], the “change of inhibitory activity at pH 5.0 and pH 7.0 compared to pH 5.9” value was “only dropped slightly”. Also, the “acid α-glucosidase (GAA) activity” value in experiment [2] is “not significantly changed”. Also, in experiment [3], the “α-galactosidase A (GLA) activity” value was “not significantly changed”. Further, the “concentration of GCase” value in experiment [5] is recorded as “significantly increased”.

Regarding `c1ccc2c(c1)CC(Nc1nc(-c3ccsc3)nc3ccccc13)C2` [Compound 11g, N-(2,3-dihydro-1H-inden-2-yl)-2-(thiophen-3-yl)quinazolin-4-amine], the “stabilization of wild-type GCase / change of GCase melting point” value in experiment [1] was “stabilize wild-type GCase in a dose-dependent manner; also recorded: increased the GCase melting point in a dose-dependent manner”. Moreover, the “change of inhibitory activity at pH 5.0 and pH 7.0 compared to pH 5.9” value in experiment [4] is listed as “only dropped slightly”. In addition, the “acid α-glucosidase (GAA) activity” value in experiment [2] is “not significantly changed”. In experiment [3], the “α-galactosidase A (GLA) activity” value was “not significantly changed”. Besides, the “concentration of GCase” value in experiment [5] was “significantly increased”. Further, the “GCase activity in patient cells” value in experiment [6] is on record as “increased GCase activity”. Also, the “type of inhibition (Km, Vmax)” value in experiment [7] is recorded as “linear mixed inhibition”.

With `OC[C@H]1CNC[C@@H](O)[C@@H]1O` [IFG, Isofagomine, reference compound], in experiment [1], the “stabilization of wild-type GCase / change of GCase melting point” value was “stabilize wild-type GCase in a dose-dependent manner”. Moreover, the “concentration of GCase” value in experiment [5] is on record as “did not have an effect”. In addition, the “GCase activity in patient cells” value in experiment [6] was “had no effect”.
